Source: patent US20250381242A1 (INVAIO SCIENCES, INC., priority 2024, published 2025)
No end group written: not given here.

Experiments:
L. crescens = conditions: 10 μM
A. tumefaciens = conditions: 24 h, 10 μM
E. coli = test: Bacterial growth inhibition by OD600 absorbance, E. coli; type: cell-based, E. coli (DH5-alpha); conditions: peptide 10 μM, 24 hours at 37° C., OD 600 nm
Protocol: (§1) Antimicrobial activity of antimicrobial peptides was tested against the agricultural microbial pests A. tumefaciens, E. amylovora, E. coli, and X. citri, using OD absorbance measurement to detect bacterial growth.
(§2) Antimicrobial peptides were synthesized using solid phase peptide synthesis method and resuspended in 10% DMSO to a 1 mM stock concentration. The stock solution was aliquoted in cryovials and stored at −80° C.
(§3) An aliquot of 198 μl of the bacterial culture was added to each well in a 96-well plate and 2 μl of a 1 mM peptide stock solution was added to each well, for a final treatment concentration of 10 μM of a given peptide. Media only wells were included to control for contamination. The positive controls were 50 μg/ml oxytetracycline hydrochloride and 500 μg/ml streptomycin sulfate. A 0.1% DMSO treatment was included as a negative control.
(§4) An initial absorbance reading of the bacterial suspensions was taken at 600 nm. Then, the bacteria were grown in an incubator at 30° C. (A. tumefaciens, E. amylovora, X. citri) or 37° C. (E. coli) for 24 hours, after which the final absorbance reading was measured. Using the initial and final absorbance reading compared to negative and positive controls, the percent inhibition of the bacterial strain by given peptide treatment was determined.

X. citri = test: Bacterial growth inhibition by OD600 absorbance, X. citri; type: cell-based, X. citri subsp. citri (ATCC 49118); conditions: peptide 10 μM, 24 hours at 30° C., OD 600 nm
Protocol: as §1, §2, §3, §4

E. amylovora = conditions: 24 h, 10 μM

Compound	growth inhibition, L. crescens (L. crescens)	growth inhibition, A. tumefaciens (A. tumefaciens)	growth inhibition, E. coli (E. coli)	growth inhibition, X. citri (X. citri)	growth inhibition, E. amylovora (E. amylovora)
IWSFLIKAATKLLPSLFGGGKKDS [SEQ ID NO: 39]	greater than 90%	–	–	–	–
KKFLHSAKKWLKAFVKLFKNW [SEQ ID NO: 33]	greater than 90%	greater than 90%	–	–	–
KLLLKWKLKLLK [compound 126]	–	<90%	<90%	<90%	<90%
NKVKEWIKYLKSLFS [compound 96]	–	100.00%	<90%	<90%	100.00%
INLKKLAARIKKKI [compound 112]	–	<90%	<90%	100.00%	<90%
VKLYPVKLYP [compound 143]	–	<90%	<90%	<90%	<90%
INWKKIKKKVAGML [compound 108]	–	<90%	<90%	100.00%	95.63%
KKPLLKKLLKKL [compound 133]	–	<90%	<90%	<90%	<90%
ALKSLLATLSKAKKKKLKTLLAALSK [compound 31]	–	100.00%	<90%	100.00%	100.00%
KKIGIWIGIKK [compound 141]	–	<90%	<90%	<90%	<90%
FQWQRNMRKVR [compound 124]	–	<90%	<90%	<90%	<90%
AKLKAYPLKAKLYP [compound 114]	–	<90%	<90%	<90%	<90%
KWKSFLKTLKSPVKTVFYTALKPISS [compound 22]	–	100.00%	100.00%	100.00%	100.00%
DLWNSIKDMAAAAGRAALNAVTGMVNQ [compound 29]	–	<90%	<90%	<90%	<90%
GWRTLLKKAEVKTVGKLALKHYL [compound 32]	–	<90%	<90%	<90%	<90%
ILKKLLKKVKSI [compound 136]	–	<90%	<90%	<90%	<90%
YSLQMGATAIKQVKKLFKKKGG [compound 56]	–	<90%	<90%	<90%	<90%
KLKKIWWIKVKK [compound 116]	–	<90%	<90%	<90%	<90%
IRVKIRVKIRVK [compound 128]	–	97.32%	100.00%	<90%	99.30%

Compound	growth inhibition, L. crescens (L. crescens)	growth inhibition, A. tumefaciens (A. tumefaciens)	growth inhibition, E. coli (E. coli)	growth inhibition, X. citri (X. citri)	growth inhibition, E. amylovora (E. amylovora)
KKLTLWLTLKK [compound 140]	–	<90%	<90%	<90%	<90%
GLWSKIKEVGKEAAKAAAKAAGKAALGAVSEAV [compound 16]	–	100.00%	100.00%	100.00%	100.00%
ALKSLLKTLSKAKAAKLKTLLKALSK [compound 30]	–	100.00%	98.52%	100.00%	100.00%
KKVVFKVKFK [compound 142]	–	<90%	<90%	<90%	<90%
KIKWILKYWKWS [compound 106]	–	<90%	<90%	<90%	<90%
AMWKDVLKKIGTVALHAGKAALGAVADTISQ [compound 17]	–	100.00%	<90%	100.00%	<90%
KKKKWKLFKKIGIGKFL [compound 75]	–	<90%	<90%	100.00%	100.00%
KVVKQWPIGKVVKKVVKKVVK [compound 58]	–	<90%	<90%	<90%	<90%
RLSRIVVIRVSR [compound 132]	–	<90%	<90%	<90%	<90%
IGKLFKRIVQRILKFLRNL [compound 63]	–	<90%	97.14%	<90%	<90%
SWLSKTAKKLENSAKKRISEGIAIAIQGGPR [compound 11]	–	99.35%	100.00%	100.00%	100.00%
FAKKLAKKLKKLAKKLAK [compound 80]	–	98.82%	<90%	<90%	100.00%
CC[C@H](C)[C@H](NC(=O)[C@H](CO)NC(=O)[C@H](CC(N)=O)NC(=O)[C@H](CC(C)C)NC(=O)[C@H](Cc1ccc(O)cc1)NC(=O)[C@H](CCCCN)NC(=O)[C@H](CCCCN)NC(=O)[C@@H](NC(=O)[C@H](C)NC(=O)[C@H](CCSC)NC(=O)[C@H](CCC(N)=O)NC(=O)[C@H](CCCCN)NC(=O)[C@H](CCCNC(=N)N)NC(=O)[C@H](CC(C)C)NC(=O)[C@H](CCCNC(=N)N)NC(=O)[C@@H](NC(=O)[C@H](Cc1ccc(O)cc1)NC(=O)[C@H](CC(N)=O)NC(=O)[C@H](CC(=O)O)NC(=O)[C@@H](NC(=O)[C@H](Cc1ccccc1)NC(=O)[C@@H](NC(=O)[C@H](C)NC(=O)[C@H](CC(=O)O)NC(=O)[C@H](CO)NC(=O)[C@@H](N)Cc1c[nH]cn1)C(C)C)[C@@H](C)O)[C@@H](C)O)C(C)C)C(=O)N[C@@H](CC(C)C)C(=O)N[C@@H](CC(N)=O)C(=O)O [compound 12]	–	<90%	<90%	93.86%	<90%
KLRKLFRKLLKLIRKLLR [compound 65]	–	<90%	95.59%	<90%	<90%
FFHHIKRGIKHVGKTIHRLVTG [compound 38]	–	<90%	<90%	100.00%	100.00%
KLLKQWPIGKLLKKLLKKLLK [compound 42]	–	100.00%	100.00%	100.00%	<90%
IRIKIRIKIRIK [compound 123]	–	<90%	<90%	<90%	<90%
GWASSIGSILGKFAKGGAQAFLQPK [compound 44]	–	<90%	<90%	<90%	<90%
FFHHIFRGIVHVGKTKHRLVTG [compound 37]	–	<90%	<90%	<90%	<90%
